From patent US7459268B2, “Method for screening agent acting on cell wall” (Daiichi Pharmaceutical Co., Ltd., priority 2001, dated 2008)

Key:
[1] = tested on: AY-2 strain (wall-type arming yeast); test: GFP releasing effect of available antifungal agents, wall-type arming yeast; type: cell-based, S. cerevisiae; conditions: RPMIB medium protected for osmotic pressure
Experimental: (§1) The cultured yeast cells in the logarithmic growth phase (AY-2 strain or AY-12 strain) were collected, and various agents were allowed to act on the yeast cells. Fluorescence intensity of the culture supernatant was measured by using Cytofluor 2300 Fluorometer (Millipore, excitation=480 nm, emission=530 nm). The fluorescence intensity under treatment with each of various agents was shown in terms of a difference in fluorescence intensity compared with that of a control in which no agent was added.
(§2) In order to ascertain whether or not the aforementioned method can be utilized for a screening of agents with a targeting site other than Kre6p, the GFP releasing effects in the AY-2 strain (wall-type arming yeast) and the AY-12 strain (membrane-type arming yeast) were compared under actions of available antifungal agents. The AY-2 strain cells and the AY-12 strain cells each cultured in a test tube were suspended with a medium (RPMIB) protected for osmotic pressure, and each of the agents was allowed to act on the cells. After the culture, the fluorescence intensity of the supernatant was measured, and a difference from that of a control with no addition of the agent was calculated.

[2] = tested on: AY-12 strain (membrane-type arming yeast); test: GFP releasing effect of available antifungal agents, membrane-type arming yeast; type: cell-based, S. cerevisiae; conditions: RPMIB medium protected for osmotic pressure
Experimental: as §1, §2

AY-14 strain [3] = test: GFP release by cell wall synthesis inhibitors; type: cell-based, Saccharomyces cerevisiae; conditions: each agent alone
Source text: As agents confirmed to have a yeast cell wall synthesis inhibitory action, tunicamycin (TM, Funakoshi, Tokyo), aculeacin A (AC, Wako Pure Chemical Industries, Osaka) and staurosporine (SP, Boehringer Mannheim, Tokyo) were used. The AY-14 strain was used as a microorganism.
Thus, it is evident that inhibitors for the (1,3)-β-glucan synthesis pathway, N-type saccharide chain synthesis pathway, saccharide chain (glucan) synthesis regulatory pathway and the like can also be screened.

AY-14 strain [4] = test: Molecular weight of released GFP by Western blotting after agent treatment; type: cell-based, Saccharomyces cerevisiae; conditions: agent alone
Experimental: Cells at the logarithmic growth phase were collected after inoculation to the liquid medium and culture at 30° C., and suspended in a fresh medium of the same type to prepare a cell suspension for inoculation. The cells were cultured at 30° C. Fluorescence intensity of the culture supernatant was measured (excitation=480 nm, emission=530 nm) by using ARVO sx (Wallac, Tokyo). The GFP releasing effect of the gene-disrupted strains was represented in terms of a difference with that of a non-gene-disrupted strain (AY-10u strain or AY12u strain). After the measurement of fluorescence intensity, the culture supernatants were concentrated by ultrafiltration. The concentrated supernatants were subjected to separation by SDS-PAGE and blotted on a PVDF membrane, and GFP was detected by using commercially available anti-GFP antibodies (rabbit IgG, Santa Cruz Biotechnology) to compare the molecular weights (Western blotting).
As agents confirmed to have a yeast cell wall synthesis inhibitory action, tunicamycin (TM, Funakoshi, Tokyo), aculeacin A (AC, Wako Pure Chemical Industries, Osaka) and staurosporine (SP, Boehringer Mannheim, Tokyo) were used. The AY-14 strain was used as a microorganism. […]

Tunicamycin was tested, and the “GFP releasing effect (fluorescence intensity of culture supernatant, difference from control with no agent)” value [1] was “Marked GFP releasing effect”, the “GFP releasing effect (fluorescence intensity of culture supernatant, difference from control with no agent)” value [2] was “almost no releasing effect” and the “release of GFP” value (AY-14 strain [3]) was “release of GFP was observed”. The “molecular weight of released GFP compared with that in the absence of agent” value (AY-14 strain [4]) was “markedly lowered”.

With Aculeacin A the “GFP releasing effect (fluorescence intensity of culture supernatant, difference from control with no agent)” value [1] was “Marked GFP releasing effect”, the “GFP releasing effect (fluorescence intensity of culture supernatant, difference from control with no agent)” value [2] was “almost no releasing effect” and the “release of GFP” value (AY-14 strain [3]) was “release of GFP was observed”.

With `OC(Cn1cncn1)(Cn1cncn1)c1ccc(F)cc1F` [Fluconazole] the “GFP releasing effect (fluorescence intensity of culture supernatant, difference from control with no agent)” value [1] was “Slight releasing effect” and the “GFP releasing effect (fluorescence intensity of culture supernatant, difference from control with no agent)” value [2] was “Slight releasing effect”.

For `CC[C@@H](C(=O)[C@@H](C)[C@@H](O)[C@H](C)[C@@H]1O[C@@H]([C@@H](CC)C(=O)O)CC[C@@H]1C)[C@H]1O[C@]2(C=C[C@@H](O)[C@]3(CC[C@@](C)([C@H]4CC[C@](O)(CC)[C@H](C)O4)O3)O2)[C@H](C)C[C@@H]1C` [Salinomycin], the “GFP releasing effect (fluorescence intensity of culture supernatant, difference from control with no agent)” value [1] was “Slight releasing effect” and the “GFP releasing effect (fluorescence intensity of culture supernatant, difference from control with no agent)” value [2] was “Slight releasing effect”.

In the case of `C[C@@H]1[C@H](O)[C@@H](C)/C=C/C=C/C=C/C=C/C=C/C=C/C=C/[C@H](O[C@@H]2O[C@H](C)[C@@H](O)[C@H](N)[C@@H]2O)C[C@@H]2O[C@](O)(C[C@@H](O)C[C@@H](O)[C@H](O)CC[C@@H](O)C[C@@H](O)CC(=O)O[C@H]1C)C[C@H](O)[C@H]2C(=O)O` [Amphotericin B], the “GFP releasing effect (fluorescence intensity of culture supernatant, difference from control with no agent)” value [1] is reported as “Slight releasing effect” and the “GFP releasing effect (fluorescence intensity of culture supernatant, difference from control with no agent)” value [2] is reported as “Slight releasing effect”.

In the case of `CN[C@@H]1C[C@H]2O[C@@](C)([C@@H]1OC)n1c3ccccc3c3c4c(c5c6ccccc6n2c5c31)C(=O)NC4` [SP, staurosporine], the “release of GFP” value (AY-14 strain [3]) is reported as “release of GFP was observed”.
